Laboratory results reported in patent US9085608B2, “Treatment of biofilms” (LYTIX BIOPHARMA AS, priority 2008, dated 2015).
≈ marks a conversion by molar mass, not a printed value. Entries after “also recorded” stand apart in the source; their conditions may differ. Residues, ends and D or L forms follow the SMILES beside them. *: point of attachment. NHPhenethyl = c1ccc(CCN*)cc1

Assays:
[1] = system: six staphylococcal strains (2 S. epidermidis, 2 S. haemolyticus and 2 S. aureus); test: Susceptibility testing under planktonic growth condition, EUCAST breakpoints; assay type: cell-based; conditions: all 6 strains; EUCAST criteria
Method: The six staphylococcal strains (2 S. epidermidis, 2 S. haemolyticus and 2 S. aureus) used in this study were selected based on their previously known biofilm forming capacity (Table 1).
(§1) Bacteria were grown overnight at 37° C. in cation adjusted Mueller-Hinton II Broth (MHIIB).
We determined the MICs of oxacillin, gentamicin, tetracycline, vancomycin and linezolid using E-test (AB Biodisk, Solna, Sweden) and MICs of rifampicin using broth microdilution assay. Breakpoints were interpreted according to EUCAST criteria. We selected 3 different SAMPs (Compounds A, B and C; Lytix Biopharma, Tromsø, Norway—see FIG. 1) based on previously known antimicrobial activities, and determined their exact MICs with broth microdilution assay. All 3 SAMPs are tripeptides with two arginine residues providing their cationic moieties (FIG. 1). The lipophilic bulk is provided by a modified tryptophane derivate. The difference between the compounds is the size of the C-terminal modification; Compound A has the smallest and Compound B has the largest C-terminal modification (FIG. 1). The molecular weights of the SAMPs are in the range of 700-800 Dalton.

[2] = system: Staphylococcus epidermidis TUH 08-16; test: microbe, parasite or virus in culture
Method: as §1
(§2) We determined the MICs of oxacillin, gentamicin, tetracycline, vancomycin and linezolid using E-test (AB Biodisk, Solna, Sweden) and MICs of rifampicin using broth microdilution assay. Breakpoints were interpreted according to EUCAST criteria. […] All 3 SAMPs are tripeptides with two arginine residues providing their cationic moieties (FIG. 1). The lipophilic bulk is provided by a modified tryptophane derivate. […] The molecular weights of the SAMPs are in the range of 700-800 Dalton.

[3] = system: Staphylococcus aureus PIA 9; test: microbe, parasite or virus in culture
Method: as §1, §2

[4] = system: Staphylococcus aureus PIA90; test: microbe, parasite or virus in culture
Method: as §1, §2

[5] = system: Staphylococcus epidermidis RP62A ATCC 35984; test: microbe, parasite or virus in culture
Method: as §1, §2

[6] = system: Staphylococcus haemolyticus TUH 51-03; test: microbe, parasite or virus in culture
Method: as §1, §2

[7] = system: Staphylococcus haemolyticus TUH 51-07; test: microbe, parasite or virus in culture
Method: as §1, §2

[8] = system: 8-16 S. epidermidis biofilm; test: MBIC, biofilm survival rate by Alamar blue, Example 3; assay type: cell-based; conditions: 24 h
Method: (§3) Biofilm formation was induced in 96-well flat bottom microtitre plates (Nunclon Surface, NUNC). First, overnight cultures were diluted 1:100 in MHIIB (S. epidermidis and S. haemolyticus) or tryptic soy broth (TSB) with 5% glucose and 5% NaCl (S. aureus). […] of this bacterial suspension (10^7 cfu/ml) was added to each well and incubated for 24 h at 37° C. After 24 h the wells were carefully washed twice with phosphate-buffered saline (PBS) to remove planktonic bacteria. The washing procedure was carefully evaluated by measuring metabolic activity of the PBS with the Alamar blue method, described in detail below.
(§4) The washed biofilms were subjected to treatment with the Compounds at different concentrations.
(§5) Trifluoroacetate salts of the compounds were dissolved in sterile water and diluted to 5 mg/L, 50 mg/L and 500 mg/L in MHIIB. […] of the Compounds, in different concentrations, were added to each well and incubated for 24 h at 37° C. Positive controls were untreated biofilms only added 200 MHIIB. Negative controls were only 200 μl MHIIB, with no bacteria added.
(§6) The metabolic activity of the biofilm was quantified with a slightly modified method previously described by Pettit et al. Antimicrob. Agents Chemother. 2005; 49: 2612-7. Briefly, after the 24 h incubation with antimicrobial agents the wells were again washed twice with PBS and then added […] MHIIB with 5% Alamar blue (AB; Biosource, Camarillo, Calif., USA). AB is a redox indicator which both fluoresces and changes colour in response to chemical reduction. The extent of reduction is a reflection of bacterial cell viability. After 1 h incubation at 37° C., absorbance was recorded at 570 and 600 nm using Versamax tuneable microplate reader (Molecular Devices, Sunnyvale, Calif., USA). All assays were performed 3 times with 8 parallels. The highest and lowest value of each run was excluded from the analyses, and the remaining 18 values were averaged.

[9] = system: 51-07 S. haemolyticus biofilm; test: as above; assay type: cell-based; conditions: 24 h
Method: as §3, §4, §5, §6

PIA 9 S. aureus biofilm = test: as above; assay type: cell-based; conditions: 24 h
Method: as §3, §4, §5, §6

[10] = system: 42-77 S. epidermidis biofilm; test: as above; assay type: cell-based; conditions: 24 h
Method: as §3, §4, §5, §6

PIA 90 S. aureus biofilm = test: as above; assay type: cell-based; conditions: 24 h
Method: as §3, §4, §5, §6

[11] = system: 51-03 S. haemolyticus biofilm; test: as above; assay type: cell-based; conditions: 24 h
Method: as §3, §4, §5, §6

8-16 S. epidermidis = assay type: cell-based; conditions: planctonic
Description: (§7) Minimum Inhibitory Concentration (MIC) on Planctonic Bacteria

51-07 S. haemolyticus = assay type: cell-based; conditions: planctonic
Description: as §7

51-03 S. haemolyticus = assay type: cell-based; conditions: planctonic
Description: as §7

PIA 90 S. aureus = assay type: cell-based; conditions: planctonic
Description: as §7

PIA 9 S. aureus = assay type: cell-based; conditions: planctonic
Description: as §7

42-77 S. epidermidis = assay type: cell-based; conditions: planctonic
Description: as §7

[12] = system: 24 h old biofilm of 6 different staphylococcal strains; test: Biofilm metabolic activity, Alamar blue reduction; assay type: cell-based, S. epidermidis, S. haemolyticus, S. aureus; conditions: 50 mg/L, 24 h treatment; all biofilms except S. aureus PIA 9
Method: Biofilm formation was induced in 96-well flat bottom microtitre plates (Nunclon Surface, NUNC, Roskilde, Denmark). First, overnight cultures were diluted 1:100 in MHIIB (S. epidermidis and S. haemolyticus) or tryptic soy broth (TSB) with 5% glucose and 5% NaCl (S. aureus). Two hundred of this bacterial suspension (10^7 cfu/ml) was added to each well and incubated for 24 h at 37° C. After 24 h the wells were carefully washed twice with phosphate-buffered saline (PBS) to remove planktonic bacteria. The washing procedure was evaluated by measuring metabolic activity of the PBS with the Alamar blue method, described in detail below.
The washed biofilms were subjected to treatment with antibiotics or SAMPs at different concentrations. Stock solutions of the tetracycline (Sigma Aldrich), vancomycin (Alpharma) and linezolid (Pfizer) were diluted in MHIIB to 5 mg/L, 50 mg/L and 500 mg/L, and rifampicin (Sigma Aldrich) was diluted in MHIIB to 0.01 mg/L, 0.1 mg/L and 1 mg/L. Trifluoroacetate salts of the SAMPs were dissolved in sterile water and diluted to 5 mg/L, 50 mg/L and 500 mg/L in MHIIB. 200 μl of antibiotics or SAMPs, in different concentrations, were added to each well and incubated for 24 h at 37° C. Positive controls were untreated biofilms only added 200 μl MHIIB. Negative controls were only 200 μl MHIIB, with no bacteria added.
We quantified the metabolic activity of biofilm with a slightly modified method previously described by Pettit et al. in Antimicrob. […] Briefly, the wells were washed twice with PBS. We then added 250 μl MHIIB with 5% Alamar blue (AB; Invitrogen, Carlsbad, Calif., USA) to each well. AB is a redox indicator which both fluoresces and changes colour in response to chemical reduction. The extent of reduction is a reflection of bacterial cell viability. After 1 h incubation at 37° C., absorbance was recorded at 570 and 600 nm using Versamax tuneable microplate reader (Molecular Devices, Sunnyvale, Calif., USA). […] The highest and lowest value of each run was excluded from the analyses, and the remaining 18 values were averaged.
The percent reduction of AB was calculated according to the manufacturer's formula (Invitrogen, Carlsbad, USA). We calculated mean and standard deviations (SD) of all repeated measurements.
We defined two levels of antimicrobial suppression of metabolic activity.

[13] = Staphylococcus epidermidis, TUH0816
[14] = Staphylococcus epidermidis, ATCC35984
[15] = Staphylococcus haemolyticus, TUH5103
[16] = Staphylococcus haemolyticus, TUH5107

With `CC(=O)NC[C@H]1CN(c2ccc(N3CCOCC3)c(F)c2)C(=O)O1` [LZD, linezolid] the “susceptibility under planktonic growth” value [1] was “susceptible; also recorded: sensitive”, the MIC [2, 13] was 2 µg/mL (≈ 5.93 µM) and the MIC ([3]; Staphylococcus aureus, PIA9) was 2 µg/mL (≈ 5.93 µM). It also gave an MIC ([4]; Staphylococcus aureus, PIA90) of 1 µg/mL (≈ 2.96 µM), an MIC [5, 14] of 1 µg/mL (≈ 2.96 µM) and an MIC [6, 15] of 0.5 µg/mL (≈ 1.48 µM). It also gave an MIC [7, 16] of 0.5 µg/mL (≈ 1.48 µM).
In the case of `N=C(N)NCCC[C@H](NC(=O)[C@H](Cc1c[nH]c2ccccc12)NC(=O)[C@H](Cc1c[nH]c2ccccc12)NC(=O)[C@@H](N)CCCNC(=N)N)C(=O)NCCc1ccccc1` [ME 171 B, R-W-W-R-NH-CH2CH2Ph] (H-RWWR-NHPhenethyl), the “MBIC measured as survival rate” value ([8]; 5 μg/ml) is reported as 100%, the “MBIC measured as survival rate” value ([8]; 50 μg/ml) is reported as 70% and the “MBIC measured as survival rate” value ([8]; 500 μg/ml) is reported as 4%. The “MBIC measured as survival rate” value ([9]; 5 μg/ml) was 100%, the “MBIC measured as survival rate” value ([9]; 50 μg/ml) was 60% and the “MBIC measured as survival rate” value ([9]; 500 μg/ml) was 12%. For the same compound, the “MBIC measured as survival rate” value (PIA 9 S. aureus biofilm; 5 μg/ml) was 100%, the “MBIC measured as survival rate” value (PIA 9 S. aureus biofilm; 50 μg/ml) was 100% and the “MBIC measured as survival rate” value (PIA 9 S. aureus biofilm; 500 μg/ml) was 90%. For the same compound, the “MBIC measured as survival rate” value ([10]; 5 μg/ml) was 100%, the “MBIC measured as survival rate” value ([10]; 50 μg/ml) was 90% and the “MBIC measured as survival rate” value ([10]; 500 μg/ml) was 10%. For the same compound, the “MBIC measured as survival rate” value (PIA 90 S. aureus biofilm; 5 μg/ml) was 100%, the “MBIC measured as survival rate” value (PIA 90 S. aureus biofilm; 50 μg/ml) was 80% and the “MBIC measured as survival rate” value (PIA 90 S. aureus biofilm; 500 μg/ml) was 5%. For the same compound, the “MBIC measured as survival rate” value ([11]; 5 μg/ml) was 100%, the “MBIC measured as survival rate” value ([11]; 50 μg/ml) was 8% and the “MBIC measured as survival rate” value ([11]; 500 μg/ml) was 9%. It also gave an MIC (8-16 S. epidermidis) of 64 µg/mL (≈ 79.4 µM), an MIC (51-07 S. haemolyticus) of 32 µg/mL (≈ 39.7 µM) and an MIC (51-03 S. haemolyticus) of 32 µg/mL (≈ 39.7 µM). The MIC (PIA 90 S. aureus) was 128 µg/mL (≈ 159 µM), the MIC (PIA 9 S. aureus) was 128 µg/mL (≈ 159 µM) and the MIC (42-77 S. epidermidis) was 64 µg/mL (≈ 79.4 µM).
`CO[C@H]1/C=C/O[C@@]2(C)Oc3c(C)c(O)c4c(O)c(c(/C=N/N5CCN(C)CC5)c(O)c4c3C2=O)NC(=O)/C(C)=C\C=C\[C@H](C)[C@H](O)[C@@H](C)[C@@H](O)[C@@H](C)[C@H](OC(C)=O)[C@@H]1C` [RIF, rifampicin] gave an MIC [2, 13] of 0.016 µg/mL (≈ 0.0194 µM), an MIC ([3]; Staphylococcus aureus, PIA9) of less than 0.016 µg/mL and an MIC ([4]; Staphylococcus aureus, PIA90) of 0.016 µg/mL (≈ 0.0194 µM). The MIC [5, 14] was less than 0.016 µg/mL, the MIC [6, 15] was less than 0.016 µg/mL and the MIC [7, 16] was 0.016 µg/mL (≈ 0.0194 µM).
`CC(C)(C)c1cc(C(C)(C)C)c2[nH]c(C(C)(C)C)c(C[C@H](NC(=O)[C@@H](N)CCCNC(=N)N)C(=O)N[C@@H](CCCNC(=N)N)C(=O)NCCc3ccccc3)c2c1` [Compound B] was tested, and the “suppression of metabolic activity (AB reduction)” value [12] was “strong or complete suppression”, the MIC ([2]; planktonic, SE TUH 08-16) was 2 µg/mL (≈ 2.54 µM) and the MIC ([3]; planktonic, SA PIA 9) was 2 µg/mL (≈ 2.54 µM). For the same compound, the MIC ([4]; planktonic, SA PIA90) was 2 µg/mL (≈ 2.54 µM), the MIC ([5]; planktonic, SE RP62A ATCC 35984) was 4 µg/mL (≈ 5.08 µM) and the MIC ([6]; planktonic, SH TUH 51-03) was 4 µg/mL (≈ 5.08 µM). For the same compound, the MIC ([7]; planktonic, SH TUH 51-07) was 4 µg/mL (≈ 5.08 µM).
